Assay results published in patent US11185527B2, “Methods and compositions relating to steroid hormone receptor-dependent cancers” (Wayne State University, priority 2017, dated 2021).
Where “and” joins values, the source holds several entries; their conditions need not be identical. Identical values can stand only once.

Legend:
22Rv1 cells = experiment: Cell monolayer growth assay (MTT); assay type: cell-based, human; conditions: enzalutamide up to 20 uM
Method: Twenty four hours after plating the 22Rv1 cells, they were treated with the indicated concentrations of KCI807 (FIG. 4C) or with the indicated concentrations of enzalutamide (ENZ) (FIG. 4D).
Twenty four hours after plating the cells, they were treated with the indicated concentrations of the compound.
FIG. 16D is a graph showing the effect of 5′-Fluoro-5,3′-Dihydroxyflavone at various concentrations on growth of 22Rv1 cells.
Cells were trypsinized and 3000-4000 cells/well were seeded in 96-well plates coated with poly-D-lysine. The cells were seeded in phenol red-free medium supplemented with 10% FBS, 100 units/ml penicillin, 100 μg/ml streptomycin, 2 mM L-glutamine mixture and sodium pyruvate (1 mM) for LNCaP cells and phenol red-free medium supplemented with 10% FBS, 100 units/ml penicillin, 100 μg/ml streptomycin and 2 mM L-glutamine mixture for VCaP, 22Rv1, DU145, HeLa, HEK293 and H1650 cells. The cells were grown at 37° C. in 5% CO2. Twenty four hours after seeding in the 96-well plates, the cells were treated with the indicated concentration of KCI807 or DMSO (vehicle). The cells were re-treated on Day 3 by removing half the volume of medium and replacing it with fresh treated medium. Cell viability was determined using the MTT assay from day zero until day five. MTT (10 μL, 5 mg/mL) was added to each well and incubated for 2h at 37° C. The formazan crystal sediments were dissolved in 100 μL of DMSO, and the absorbance at 570 nm was measured using the BioTek Synergy 2 Microplate Reader (BioTek, Winooski, Vt.). The assay was conducted in sextuplicate wells and values were normalized to day zero.

[1] = Metabolism in pooled human liver microsomes (HLM) with or without NADPH; assay type: in vitro ADME
Method: BD UltraPool human liver microsomes (HLM) 150 and the NAPDH regenerating system solution A and B were obtained from Corning Inc. Pooled HLM were used to determine percentage of metabolism of 5,3′-Dihydroxyflavone and 5,3-Dihydroxy-4′-methylflavone. The compounds (20 μM) were co-incubated with HLM (0.05 mg/ml) in the presence or absence of NAPDH for 30 minutes in a 37° C. water bath. At the end of the microsome reaction, the reaction was quenched with 1000 μl ethyl acetate. The mixture was vortexed and centrifuged at 13,000 rpm for 15 minutes, the supernatant was then subjected to high-performance liquid chromatography with tandem mass spectrometry ([…]) analysis.

[2] = test system: ELK1-dependent promoter activation by AR; experiment: Primary screening assay: luciferase reporter in recombinant HeLa cells (Gal4-TATA-Luc, Gal4-ELK1, AR) treated with testosterone; assay type: cell-based, human; conditions: for inhibition of ELK1-dependent promoter activation by AR (in words): testosterone-treated recombinant HeLa cells, luciferase
Text: FIG. 6A is a schematic diagram of the reporter system for the primary screening assay. Recombinant HeLa cells used in this assay harbor the Gal4-TATA-Luc promoter-reporter, and stably express a Gal4-ELK1 fusion protein as well as the androgen receptor (AR). Gal4-ELK1 is bound to the Gal4 elements in the promoter. In the absence of testosterone (small circle), AR is localized in the cytoplasm. When testosterone is present it binds to AR causing AR to translocate to the nucleus where it then binds to Gal4-ELK1 and activates the downstream luciferase reporter.
HeLa HLR cells obtained from Dr. Johann Hofman (Innsbruck Medical University), which were originally designed to serve as a cell-based assay system to measure modulation of MAPK activity. HeLa HLR cells have a stably integrated minimal promoter-luciferase reporter containing five upstream Gal4 elements (Gal4-TATA-Luc) and also constitutively express a Gal4-ELK1 fusion protein in which the Gal4 DNA binding domain is substituted for the ETS DNA binding domain of ELK1. In order to produce recombinant cell lines for high throughput screening and counter screening of small molecule libraries, HeLa HLR were stably transduced with a vector expressing the full-length AR. A sequence encoding the full length AR (SEQ ID NO:9) was subcloned from the pCMV expression vector (Origene) into the pCDH-CMV-MCS-EF1-Puro cDNA Cloning and Expression Vector (System Biosciences) at NheI (upstream) and BamHI (downstream) sites. The lentiviral vector expressing full length AR was then packaged in lentivirus and the HeLa HLR cells were infected as described below in the sub-section “Lentivirus-mediated-Transduction.” After 72 hours (h) of infection, 2 ug/mL of puromycin was added to the culture medium to select for the transduced cells. The cells were plated at low density for colony formation (20-40 colonies) in a 100 mm dish. Clonal cells were isolated using cloning cylinders from CORNING (Cat. #3166-8). The selected clones were further expanded and then tested for luciferase induction by testosterone. The clone that gave the greatest luciferase signal to noise ratio in response to testosterone treatment was then chosen for use in the primary screening assay for high throughput small molecule screening.
For high throughput screening, recombinant primary screening cells were first depleted of hormone by growing them for 24h in medium in which the serum used was heat-inactivated and charcoal-stripped. The cells were then plated in 384-well white flat bottom plates (5,000 cells/well) (Corning Product #3570) using a Multidrop (Thermo Fisher Scientific, Waltham, Mass.). The plates were then incubated for 24h prior to adding test compounds. The following day test compounds from the LOPAC, Prestwick, or Maybridge Hitfinder libraries were added precisely in a 0.2 μL volume in the test wells using a Biomek FX liquid handler (Beckman Coutler, Break, Calif.) to achieve final media concentration of 10 μM of each test compound. Using the Multidrop (ThermoLab Systems, Helsinki, Finland), testosterone was added in addition to the test compounds to achieve a final media concentration of 10 nM. As the test compounds were re-constituted from powder stocks using dimethyl sulfoxide (DMSO) as the solvent, the final media concentration of DMSO was 0.4% v/v. For the assay negative control on each plate, one row of wells on each plate contained 10 nM testosterone and 0.4% v/v of DMSO. For the assay positive control on each plate, one row of wells on each plate contained 10 nM testosterone and 10 uM enzalutamide dissolved in DMSO (0.4% v/v of DMSO in the wells). The plates were incubated for 24h at 37° C. in 5% CO2. The medium was then aspirated leaving a residual volume 10 μl using an Elx 405-plate washer (Bio Tek U.S.). Then, 10 uL of the assay reagent Bright-Glo (Promega Corp., Madison Wis.) was added to each well. […]

[3] = test system: ARE-dependent promoter activation by AR; experiment: Counter screening assay: ARE-luciferase reporter in recombinant HeLa cells expressing AR; assay type: cell-based, human; conditions: testosterone-treated recombinant HeLa cells
Text: FIG. 6B is a schematic diagram of the reporter system for the counter screening assay. Recombinant HeLa cells used in this assay are identical to the primary screening cells except for the absence of Gal4-ELK1 and substitution of the Gal4 elements in the promoter with a canonical ARE. In this case, testosterone causes cytosolic AR to translocate to the nucleus and bind to the ARE in the promoter resulting in activation of the luciferase reporter.
The cells generated for counter screening, are HeLa cells stably transduced with a lentiviral plasmid construct containing a minimal promoter-luciferase reporter and an upstream androgen response element (ARE) sequence. These HeLa cells were also transduced with a lentiviral expression plasmid encoding the full-length AR. These lentiviral constructs were made as follows. Custom synthesized PCR primers were used to amplify and clone the ARE sequence from a pG5luc plasmid construct containing an ARE sequence element into the pGreenFire1 ™-mCMV-EF1-Neo (Plasmid) at SpeI (upstream) and BamHI (downstream) sites. pG5luc Vector is well known and the complete sequence has NCBI accession #AF264724. The ARE containing pG5luc plasmid is described in detail in Patki et al., 2013, J Biol Chem, 288:11047-11065. The lentiviral vector expressing ARE-luciferase reporter was then packaged in lentivirus and parental HeLa cells were infected as described below under the heading “Lentivirus-mediated-Transduction.” After 72h of infection, 400 ug/mL of Geneticin was added to the culture medium to select for the transduced cells. These cells were then infected with the lentivirus containing the full length AR expression plasmid described above. After 72h of infection, 2 ug/mL of Puromycin was added to the culture medium to select for the transduced cells. Clonal cells harboring both the ARE-promoter-luciferase reporter and also stably expressing AR were then isolated using cloning cylinders as described above. The selected clones were further expanded and then tested for luciferase induction by testosterone. The clone that gave the greatest luciferase signal to noise ratio in response to testosterone treatment was then chosen for use in the counter screening assay for high throughput small molecule screening. All of the plasmid constructs generated above were sequenced to verify DNA sequences before, the constructs were used.
For high throughput screening, recombinant primary screening cells were first depleted of hormone by growing them for 24h in medium in which the serum used was heat-inactivated and charcoal-stripped. The cells were then plated in 384-well white flat bottom plates (5,000 cells/well) (Corning Product #3570) using a Multidrop (Thermo Fisher Scientific, Waltham, Mass.). […]

AR negative cell lines = experiment: Toxicity to AR negative cell lines; conditions: at low doses, concentration range of 1 uM-10 uM
[4] = HLM 0.05 mg/ml, 30 minutes, 37° C.

SMILES: Cc1ccc(-c2cc(=O)c3c(O)cccc3o2)cc1O [4′-methyl-5,3′-dihydroxyflavone, 5,3′-dihydroxy-4′-methylflavone]
- growth inhibition of 22Rv1 cells (22Rv1 cells): retained its ability to inhibit growth
- compound concentration after HLM incubation, Control (absence of NADPH), replicate [1, 4]: 1789 nM and 1770 nM and 1757 nM and 1773 nM and 1776 nM and 1782 nM
- compound concentration after HLM incubation, NADPH treated, replicate [1, 4]: 1491 nM and 1513 nM and 1639 nM and 1651 nM and 1498 nM and 1501 nM
- mean compound concentration, Control (absence of NADPH) [1, 4]: 1774 nM
- mean compound concentration, NADPH treated [1, 4]: 1549 nM
- percentage metabolized (%) ([1]; HLM 0.05 mg/ml, NADPH, 30 minutes, 37° C.): 12.7%
- reduction of metabolism in human liver microsomes relative to 5,3′-dihydroxyflavone ([1]; methyl group substitution on the 4′ carbon): 50%

SMILES: COc1c(-c2ccc(O)c(O)c2)oc2cc(O)cc(O)c2c1=O [5,7,3′,4′-tetrahydroxy-3-methoxyflavone]
- inhibition of ELK1-dependent promoter activation by AR (in words) [2]: lack of inhibition

SMILES: O=c1cc(-c2cc(O)cc(F)c2)oc2cc(F)cc(O)c12 [5′,7-diflouro-5,3′-dihydroxyflavone]
- inhibition of ELK1-dependent promoter activation by AR (in words) [2]: inhibited
- inhibition of ARE-dependent promoter activation by AR (in words) [3]: inhibited
- toxicity to AR negative cell lines (AR negative cell lines): toxic

SMILES: O=c1cc(-c2cccc(O)c2)oc2cc(F)cc(O)c12 [7-Fluoro-5,3′-dihydroxyflavone]
- inhibition of ELK1-dependent promoter activation by AR (in words) [2]: inhibited
- inhibition of ARE-dependent promoter activation by AR (in words) [3]: inhibited

SMILES: O=c1cc(-c2ccc(O)c(O)c2)oc2cc(O)cc(O)c12 [Hit1, 5,7,3′,4′-tetrahydroxyflavone]
- inhibition at 10 µM ([2]; Homo sapiens, HeLa, compound concentration of 10 μM, read-out: inhibition in the primary screen): 80 to 100%
- inhibition of ARE-dependent promoter activation by AR (in words) [3]: virtual absence of an effect
